Values of other authors, collected in publication PMC3014826 (The Biochemical journal, 2009).

Test system: A6 TCR
Settings: ITC, 37 °C; ref Armstrong et al. (2008)

For HTLV-1 Tax11-19 peptide [Native Tax], the “ΔG°” value is given as -8.59 ± 0.04 kcal/mol, the “ΔH°” value is given as -7.1 ± 0.1 kcal/mol and the “ΔS°” value is given as 4.7 ± 0.4 cal/mol/K.
